Laboratory results from the supplement of paper PMC11061612.

Assays:
Test in all cases: combination Emax (second highest fraction inhibited in the dose matrix, 72 h); higher = more inhibition; extreme values may be limits of the assay
[1] = tested on: TE-6 (Esophageal Squamous Cell Carcinoma)
Outline: (§1)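 Cell lines grown in DMEM/F12 or RPMI with 10% FBS were plated in 1536-well plates and held 24 hours at 37°C, 5% CO2 before 72 hours of exposure to two-drug dose matrices, with DMSO typically at 0.2%. CellTiter-Glo 2.0 luminescence gave viability, which was converted to inhibition. Vehicle wells were set to 0 and blank wells to 1. Combination Emax is the second-highest inhibition in the matrix, and Bliss excess is the observed combination effect minus the expected EA + EB − EA·EB, where EA and EB are the single-agent effects.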

[2] = tested on: BL-41 (Burkitt's Lymphoma)
Outline: as §1

[3] = tested on: KM12 (Colorectal Carcinoma)
Outline: as §1

[4] = tested on: EVSA-T (Breast Carcinoma)
Outline: as §1

[5] = tested on: DiFi (Colorectal Carcinoma)
Outline: as §1

[6] = tested on: COLO-678 (Colorectal Carcinoma)
Outline: as §1

[7] = tested on: WM-115 (Melanoma)
Outline: as §1

[8] = tested on: WIL2-NS (Non-Cancerous)
Outline: as §1

[9] = tested on: TC-71 (Ewing's Sarcoma)
Outline: as §1

[10] = tested on: L-540 (Hodgkin's Lymphoma)
Outline: as §1

[11] = tested on: SU-DHL-8 (B-Cell Non-Hodgkin's Lymphoma)
Outline: as §1

[12] = tested on: KYSE-180 (Esophageal Squamous Cell Carcinoma)
Outline: as §1

[13] = tested on: DND-41 (T-Lymphoblastic Leukemia)
Outline: as §1

[14] = tested on: MS751 (Cervical Carcinoma)
Outline: as §1

[15] = tested on: ES1 (Ewing's Sarcoma)
Outline: as §1

[16] = tested on: KARPAS-45 (T-Lymphoblastic Leukemia)
Outline: as §1

[17] = tested on: LN-18 (Glioblastoma)
Outline: as §1

[18] = tested on: SR (Other Blood Carcinomas)
Outline: as §1

[19] = tested on: MEL-JUSO (Melanoma)
Outline: as §1

Structure (SMILES) | combination Emax [1] | combination Emax [2] | combination Emax [3] | combination Emax [4] | combination Emax [5] | combination Emax [6] | combination Emax [7] | combination Emax [8] | combination Emax [9] | combination Emax [10] | combination Emax [11] | combination Emax [12] | combination Emax [13] | combination Emax [14] | combination Emax [15] | combination Emax [16] | combination Emax [17] | combination Emax [18] | combination Emax [19]
Cc1nc(Nc2ncc(C(=O)Nc3c(C)cccc3Cl)s2)cc(N2CCN(CCO)CC2)n1 [Dasatinib] + CC(=O)Nc1cccc(-n2c(=O)n(C3CC3)c(=O)c3c(Nc4ccc(I)cc4F)n(C)c(=O)c(C)c32)c1 [Trametinib] (first compound max 2 µM, 7x7, partner max 1 µM) | 0.535 | 0.144 | 0.714 | 0.176 | 0.784 | 0.559 | 0.805 | 0.721 | 0.146 | 0.148 | 0.0526 | 0.411 | 0.263 | 0.282 | 0.0713 | 0.592 | 0.353 | 0.245 | 0.497
NC1(C(=O)N[C@@H](CCO)c2ccc(Cl)cc2)CCN(c2ncnc3[nH]ccc23)CC1 [Capivasertib] + CCN(CCO)CCCOc1ccc2c(Nc3cc(CC(=O)Nc4cccc(F)c4)[nH]n3)ncnc2c1 [AZD2811] (first compound max 10 µM, 7x7, partner max 1 µM) | 0.673 | 0.706 | 0.77 | 0.979 | 0.658 | 0.222 | 0.583 | 0.641 | 0.854 | 0.361 | 0.324 | 0.51 | 0.224 | 0.632 | 0.905 | 0.979 | 0.597 | 0.957 | 0.274
CS(=O)(=O)CCNCc1ccc(-c2ccc3ncnc(Nc4ccc(OCc5cccc(F)c5)c(Cl)c4)c3c2)o1 [Lapatinib] + C[C@@H](Oc1cc(-c2cnn(C3CCNCC3)c2)cnc1N)c1c(Cl)ccc(F)c1Cl [Crizotinib] (first compound max 10 µM, 7x7, partner max 10 µM) | 0.835 | 0.96 | 0.93 | 0.985 | 1 | 0.62 | 0.877 | 0.607 | 0.758 | 0.911 | 0.694 | 0.952 | 0.946 | 0.987 | 0.965 | 1 | 0.965 | 1 | 0.912
C[C@@H](c1ccc2nccn2c1)n1nnc2ncc(-c3cnn(C)c3)nc21 [Savolitinib] + CC1(C)CCC(CN2CCN(c3ccc(C(=O)NS(=O)(=O)c4ccc(NCC5CCOCC5)c([N+](=O)[O-])c4)c(Oc4cnc5[nH]ccc5c4)c3)CC2)=C(c2ccc(Cl)cc2)C1 [Venetoclax] (first compound max 1 µM, 7x7, partner max 1 µM) | 0.124 | 0.106 | 0.058 | 0.201 | 0.11 | 0.146 | 0.199 | 0.163 | 0.119 | 0.246 | 0.288 | 0.134 | 0.233 | 0.176 | 0.113 | 0.322 | 0.146 | 0.437 | 0.126
COc1cc2ncnc(Nc3ccc(F)c(Cl)c3)c2cc1OCCCN1CCOCC1 [Gefitinib] + CC(C)n1c(=O)n(C)c2cnc3cc(F)c(-c4ccc(OCCCN5CCCCC5)nc4)cc3c21 [AZD1390] (first compound max 10 µM, 7x7, partner max 0.3 µM) | 0.685 | 0.279 | 0.044 | 0.27 | 0.919 | 0.306 | 0.139 | 0.397 | 0.183 | 0.451 | 0.142 | 0.246 | 0.115 | 0.133 | 0.353 | 0.644 | 0.146 | 0.2 | 0.114
NC1(C(=O)N[C@@H](CCO)c2ccc(Cl)cc2)CCN(c2ncnc3[nH]ccc23)CC1 [Capivasertib] + C[C@@H]1COCCN1C2=NC(=NC(=C2)C3(CC3)[S@](=N)(=O)C)C4=C5C=CNC5=NC=C4 [AZD6738] (first compound max 10 µM, 7x7, partner max 10 µM) | 0.754 | 0.981 | 0.91 | 0.959 | 0.779 | 0.237 | 0.628 | 0.919 | 0.959 | 0.94 | 0.964 | 0.554 | 0.886 | 0.498 | 0.972 | 0.854 | 0.846 | 0.954 | 0.524
NC1(C(=O)N[C@@H](CCO)c2ccc(Cl)cc2)CCN(c2ncnc3[nH]ccc23)CC1 [Capivasertib] + CC(C)n1c(=O)n(C)c2cnc3cc(F)c(-c4ccc(OCCCN5CCCCC5)nc4)cc3c21 [AZD1390] (first compound max 10 µM, 7x7, partner max 0.3 µM) | 0.599 | 0.297 | 0.755 | 0.975 | 0.592 | 0.146 | 0.565 | 0.682 | 0.263 | 0.265 | 0.107 | 0.488 | 0.165 | 0.19 | 0.452 | 0.581 | 0.432 | 0.361 | 0.164
Cn1cnc2c(F)c(Nc3ccc(Br)cc3Cl)c(C(=O)NOCCO)cc21 [Selumetinib] + CC(C)n1c(=O)n(C)c2cnc3cc(F)c(-c4ccc(OCCCN5CCCCC5)nc4)cc3c21 [AZD1390] (first compound max 10 µM, 7x7, partner max 0.3 µM) | 0.388 | 0.209 | 0.657 | 0.174 | 0.641 | 0.502 | 0.411 | 0.252 | 0.237 | 0.0301 | 0.0761 | 0.0295 | 0.157 | 0.144 | 0.0951 | 0.0319 | 0.157 | 0.129 | 0.349
Cn1cnc2c(F)c(Nc3ccc(Br)cc3Cl)c(C(=O)NOCCO)cc21 [Selumetinib] + CCN(CCO)CCCOc1ccc2c(Nc3cc(CC(=O)Nc4cccc(F)c4)[nH]n3)ncnc2c1 [AZD2811] (first compound max 10 µM, 7x7, partner max 1 µM) | 0.353 | 0.629 | 0.676 | 0.283 | 0.813 | 0.51 | 0.434 | 0.259 | 0.838 | 0.194 | 0.354 | 0.103 | 0.199 | 0.639 | 0.532 | 0.926 | 0.34 | 0.942 | 0.427
COc1nnc2ccc(N3CCC(c4ccc(OCCN5CCN(C)C(=O)[C@H]5C)cc4)CC3)nn12 [AZD5153] + Cc1c2c(nn1C)CSCc1cc(n(C)n1)CSc1cc(c3ccccc3c1)OCCCc1c(C(=O)O)n(C)c3c-2c(Cl)ccc13 [AZD5991] (first compound max 1 µM, 7x7, partner max 1 µM) | 0.77 | 1 | 0.648 | 1 | 0.768 | 0.51 | 0.707 | 0.849 | 0.996 | 1 | 0.998 | 0.513 | 0.845 | 0.919 | 0.955 | 1 | 0.616 | 0.968 | 0.306
CC(=O)c1c(C)c2cnc(Nc3ccc(N4CCNCC4)cn3)nc2n(C2CCCC2)c1=O [Palbociclib] + CC1(C)CCC(CN2CCN(c3ccc(C(=O)NS(=O)(=O)c4ccc(NCC5CCOCC5)c([N+](=O)[O-])c4)c(Oc4cnc5[nH]ccc5c4)c3)CC2)=C(c2ccc(Cl)cc2)C1 [Venetoclax] (first compound max 10 µM, 7x7, partner max 1 µM) | 0.264 | 0.312 | 0.683 | 0.209 | 0.47 | 0.222 | 0.0976 | 0.727 | 0.272 | 0.257 | 0.37 | 0.188 | 0.45 | 0.128 | 0.56 | 1 | 0.383 | 0.94 | 0.143
COc1nnc2ccc(N3CCC(c4ccc(OCCN5CCN(C)C(=O)[C@H]5C)cc4)CC3)nn12 [AZD5153] + CC1(C)CCC(CN2CCN(c3ccc(C(=O)NS(=O)(=O)c4ccc(NCC5CCOCC5)c([N+](=O)[O-])c4)c(Oc4cnc5[nH]ccc5c4)c3)CC2)=C(c2ccc(Cl)cc2)C1 [Venetoclax] (first compound max 1 µM, 7x7, partner max 1 µM) | 0.572 | 0.87 | 0.643 | 0.938 | 0.586 | 0.408 | 0.365 | 0.807 | 0.657 | 0.755 | 0.663 | 0.293 | 0.835 | 0.702 | 0.482 | 1 | 0.638 | 0.749 | 0.215
COc1nnc2ccc(N3CCC(c4ccc(OCCN5CCN(C)C(=O)[C@H]5C)cc4)CC3)nn12 [AZD5153] + CN(CC[C@H](CSC1=CC=CC=C1)NC2=C(C=C(C=C2)S(=O)(=O)NC(=O)C3=CC=C(C=C3)N4CCC(CC4)[C@H](C5=CC=CC=C5C6=CC=C(C=C6)Cl)O)S(=O)(=O)C(F)(F)F)CCO [AZD4320] (first compound max 1 µM, 7x7, partner max 1 µM) | 0.81 |  | 0.648 | 0.938 | 0.818 | 0.459 |  |  | 0.814 |  | 1 | 0.326 |  | 0.726 |  | 1 | 0.605 |  | 0.3
